In PubChem BioAssay AID248 (DTP/NCI, 2004):
Where “and” joins values, the source holds several entries; their conditions need not be identical. Equal values may be shown once. Inconclusive results and toxic doses are left out. Rule as the data show it: active = T/C of 150% or more; inactive = T/C below 125%.

System: L1210 leukemia ip in BDF1 mice, survival T/C
Experiment: NCI In Vivo Anticancer Drug Screen. Data for tumor model L1210 Leukemia (intraperitoneal) in B6D2F1 (BDF1) mice
Conditions: endpoint: mean survival time, higher = longer survival
Summary of the method: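 Value reflects the ratio of survival in compound-treated mice to survival in vehicle-treated controls, with both groups carrying the same transplanted tumor.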

[1] = dose: 100.0 mg/kg/injection, schedule: Q01DX001 (ip), vehicle: saline with Tween-80
[2] = dose: 200.0 mg/kg/injection, schedule: Q01DX001 (ip), vehicle: saline with Tween-80
[3] = dose: 400.0 mg/kg/injection, schedule: Q01DX001 (ip), vehicle: saline with Tween-80
[4] = dose: 12.5 mg/kg/injection, schedule: Q04DX003 (ip), vehicle: saline with Tween-80
[5] = dose: 25.0 mg/kg/injection, schedule: Q04DX003 (ip), vehicle: saline with Tween-80
[6] = dose: 50.0 mg/kg/injection, schedule: Q04DX003 (ip), vehicle: saline with Tween-80
[7] = dose: 100.0 mg/kg/injection, schedule: Q04DX003 (ip), vehicle: saline with Tween-80
[8] = dose: 25.0 mg/kg/injection, schedule: Q01DX009 (ip), vehicle: saline with Tween-80
[9] = dose: 50.0 mg/kg/injection, schedule: Q01DX009 (ip), vehicle: saline with Tween-80
[10] = dose: 100.0 mg/kg/injection, schedule: Q04DX003 (ip), vehicle: Klucel (hydroxypropylcellulose) (HPC)
[11] = dose: 200.0 mg/kg/injection, schedule: Q04DX003 (ip), vehicle: Klucel (hydroxypropylcellulose) (HPC)
[12] = dose: 100.0 mg/kg/injection, schedule: Q01DX009 (ip), vehicle: Klucel (hydroxypropylcellulose) (HPC)
[13] = dose: 200.0 mg/kg/injection, schedule: Q01DX009 (ip), vehicle: Klucel (hydroxypropylcellulose) (HPC)
[14] = dose: 100.0 mg/kg/injection, schedule: Q01DX009 (ip), vehicle: saline with Tween-80
[15] = dose: 200.0 mg/kg/injection, schedule: Q01DX009 (ip), vehicle: saline with Tween-80
[16] = dose: 100.0 mg/kg/injection, schedule: Q01DX001 (ip), vehicle: carboxymethylcellulose (CMC)
[17] = dose: 200.0 mg/kg/injection, schedule: Q01DX001 (ip), vehicle: carboxymethylcellulose (CMC)
[18] = dose: 400.0 mg/kg/injection, schedule: Q01DX001 (ip), vehicle: carboxymethylcellulose (CMC)
[19] = dose: 200.0 mg/kg/injection, schedule: Q04DX003 (ip), vehicle: saline with Tween-80
[20] = dose: 400.0 mg/kg/injection, schedule: Q04DX003 (ip), vehicle: saline with Tween-80

Measured: T/C

CS(=O)(=O)OC1C(N=[N+]=[N-])CN(C(=O)c2ccccc2)C1CCOC(=O)c1ccccc1 (centres undefined)
inactive: [1] 102 % of control | [2] 96 % of control | [3] 96 % of control

N#C/C(=C\c1ccncc1)c1ccccc1Cl
inactive: dose: 100.0 mg/kg/injection, schedule: Q01DX001 (ip), vehicle: other 91 % of control | dose: 200.0 mg/kg/injection, schedule: Q01DX001 (ip), vehicle: other 89 % of control | dose: 400.0 mg/kg/injection, schedule: Q01DX001 (ip), vehicle: other 96 % of control

N#CC(C#N)=Cc1ccnc2ccccc12
inactive: dose: 10.0 mg/kg/injection, schedule: Q01DX009 (ip), vehicle: saline with Tween-80 101 % of control | [4] 101 % of control | dose: 20.0 mg/kg/injection, schedule: Q01DX009 (ip), vehicle: saline with Tween-80 101 % of control | [5] 104 % of control | dose: 40.0 mg/kg/injection, schedule: Q01DX009 (ip), vehicle: saline with Tween-80 101 % of control | [6] 95 % of control | [7] 105 % of control

COc1cc2c(cc1O)C(Cc1ccc(OC)c(OC)c1)N(C)CC2 (centres undefined)
inactive: dose: 75.0 mg/kg/injection, schedule: Q01DX001 (ip), vehicle: other 93 % of control | dose: 150.0 mg/kg/injection, schedule: Q01DX001 (ip), vehicle: other 101 % of control

c1ccc(C2OC3(CCCCC3)C[N+]23CCCC3)cc1 (centres undefined)
inactive: [8] 109 % of control | [9] 107 % of control | [7] 97 % of control

Nc1c(Cl)ncnc1Nc1cccc(C(=O)O)c1
inactive: dose: 50.0 mg/kg/injection, schedule: Q01DX001 (ip), vehicle: saline 98 % of control | dose: 100.0 mg/kg/injection, schedule: Q01DX001 (ip), vehicle: saline 108 % of control | dose: 200.0 mg/kg/injection, schedule: Q01DX001 (ip), vehicle: saline 102 % of control | dose: 400.0 mg/kg/injection, schedule: Q01DX001 (ip), vehicle: saline 93 % of control

C/C=C/C=C/COC(=O)CCCCCCCCC
inactive: dose: 100.0 mg/kg/injection, schedule: Q04DX002 (ip), vehicle: saline 100 % of control | dose: 200.0 mg/kg/injection, schedule: Q04DX002 (ip), vehicle: saline 121 % of control | dose: 400.0 mg/kg/injection, schedule: Q04DX002 (ip), vehicle: saline 108 % of control

Nc1nc(Cc2cccc3ccccc23)nc(Cc2cccc3ccccc23)n1
inactive: [10] 87 % of control | [11] 92 % of control

O=[N+]([O-])c1ccc(Oc2ccc(Cl)cc2)cc1
inactive: [10] 94 % of control | [11] 102 % of control | dose: 400.0 mg/kg/injection, schedule: Q04DX003 (ip), vehicle: Klucel (hydroxypropylcellulose) (HPC) 94 % of control

COc1ccc([N+](=O)[O-])cc1NC(=O)Nc1ccccc1C(N)=O
inactive: dose: 50.0 mg/kg/injection, schedule: Q01DX009 (ip), vehicle: Klucel (hydroxypropylcellulose) (HPC) 105 % of control | [12] 101 % of control | [13] 97 % of control

O=C(NCCBr)c1cccc2ccccc12
inactive: [12] 106 % of control | [13] 97 % of control | dose: 400.0 mg/kg/injection, schedule: Q01DX009 (ip), vehicle: Klucel (hydroxypropylcellulose) (HPC) 95 % of control

CCCCCCCCCCCCOCCCN
inactive: dose: 12.5 mg/kg/injection, schedule: Q01DX009 (ip), vehicle: saline with Tween-80 98 % of control | [4] 92 % of control | [8] 90 % of control | [5] 90 % of control | [6] 92 % of control

CCOC(=O)C(=O)NCc1cnccn1
inactive: dose: 100.0 mg/kg/injection, schedule: Q01DX009 (ip), vehicle: water 103 % of control | dose: 100.0 mg/kg/injection, schedule: Q04DX003 (ip), vehicle: water 91 % of control | dose: 200.0 mg/kg/injection, schedule: Q01DX009 (ip), vehicle: water 101 % of control and 107 % of control | dose: 200.0 mg/kg/injection, schedule: Q04DX003 (ip), vehicle: water 94 % of control | dose: 400.0 mg/kg/injection, schedule: Q01DX009 (ip), vehicle: water 94 % of control and 110 % of control | dose: 400.0 mg/kg/injection, schedule: Q04DX003 (ip), vehicle: water 104 % of control

N#[N+]c1nc[nH]c1C(N)=O
inactive: dose: 0.4 mg/kg/injection, schedule: Q03HX008 (ip), vehicle: steriod suspending solution 92 % of control | dose: 0.6 mg/kg/injection, schedule: Q03HX008 (ip), vehicle: steriod suspending solution 96 % of control | dose: 0.9 mg/kg/injection, schedule: Q03HX008 (ip), vehicle: steriod suspending solution 97 % of control | dose: 1.3 mg/kg/injection, schedule: Q03HX008 (ip), vehicle: steriod suspending solution 89 % of control | dose: 1.8 mg/kg/injection, schedule: Q03HX008 (ip), vehicle: steriod suspending solution 92 % of control | dose: 2.6 mg/kg/injection, schedule: Q03HX008 (ip), vehicle: steriod suspending solution 97 % of control | dose: 3.75 mg/kg/injection, schedule: Q01DX001 (ip), vehicle: steriod suspending solution 93 % of control | dose: 3.8 mg/kg/injection, schedule: Q03HX008 (ip), vehicle: steriod suspending solution 95 % of control | dose: 6.25 mg/kg/injection, schedule: Q01DX001 (ip), vehicle: steriod suspending solution 96 % of control | dose: 12.5 mg/kg/injection, schedule: Q01DX001 (ip), vehicle: steriod suspending solution 99 % of control

FC1(F)SC2C3CCC(C3)C2C1(F)F (centres undefined)
inactive: dose: 6.25 mg/kg/injection, schedule: Q04DX002 (ip), vehicle: saline with Tween-80 95 % of control | dose: 12.5 mg/kg/injection, schedule: Q04DX002 (ip), vehicle: saline with Tween-80 95 % of control | dose: 25.0 mg/kg/injection, schedule: Q04DX002 (ip), vehicle: saline with Tween-80 93 % of control

COc1cc2c(cc1O)C(=O)CCC(C(=O)O)=C2
inactive: [9] 93 % of control | [14] 107 % of control | [15] 96 % of control

O=c1[nH]cnc2c1ncn2CCCCCCl
inactive: [10] 102 % of control

CCCCN(C)/N=N/c1nc[nH]c1C(=O)OC
inactive: dose: 33.0 mg/kg/injection, schedule: Q01DX015 (ip), vehicle: carboxymethylcellulose (CMC) 108 % of control | dose: 45.0 mg/kg/injection, schedule: Q01DX015 (ip), vehicle: carboxymethylcellulose (CMC) 117 % of control | dose: 60.0 mg/kg/injection, schedule: Q01DX015 (ip), vehicle: carboxymethylcellulose (CMC) 95 % of control | dose: 75.0 mg/kg/injection, schedule: Q01DX015 (ip), vehicle: carboxymethylcellulose (CMC) 86 % of control | [16] 98 % of control | [17] 104 % of control | [18] 124 % of control

CC(N)c1ccccc1Cl (centres undefined)
inactive: dose: 12.5 mg/kg/injection, schedule: Q04DX003 (ip), vehicle: saline 107 % of control | dose: 25.0 mg/kg/injection, schedule: Q04DX003 (ip), vehicle: saline 96 % of control | dose: 50.0 mg/kg/injection, schedule: Q04DX003 (ip), vehicle: saline 96 % of control

C1CCC2C(C1)CCCC2C(C1CCCC2CCCCC21)C1CCCC2CCCCC21 (centres undefined)
inactive: [1] 90 % of control | [2] 90 % of control | [3] 90 % of control

CC(=O)Nc1cc(Cl)cc(Cl)c1
inactive: [7] 100 % of control | [19] 102 % of control | [20] 96 % of control

COC1(c2ccc(C(F)(F)F)cc2)OC1(C)C (centres undefined)
inactive: [14] 98 % of control | [7] 96 % of control | [15] 100 % of control | [19] 102 % of control | dose: 400.0 mg/kg/injection, schedule: Q01DX009 (ip), vehicle: saline with Tween-80 104 % of control | [20] 102 % of control

CCCCC(SC(CC)(C(N)=O)c1ccccc1)C(=O)O (centres undefined)
inactive: [16] 90 % of control | [17] 102 % of control | [18] 90 % of control
